Laboratory results from patent US12383545B1, “Treatment of migraine” (priority 2018, dated 2025).

Assays:
Assay type in all cases: in vivo, human
[1] = tested on: participants with episodic migraine; experiment: Study A: Headache Impact Test (HIT-6); conditions: for HIT-6 change from baseline to week 12, MMRM LS mean change (SE) / HIT-6 change from baseline to week 12, mean (SD) / HIT-6 score, Week 12, mean (SD): mITT
Method: In embodiments, the present disclosure provides a method for preventing migraine (such as a method for preventing migraine in patients having fewer than fifteen migraine days per month) wherein atogepant is administered in an amount of 10 mg QD, 30 mg QD, or 60 mg QD, wherein administration of atogepant results in a reduction in a 6-item Headache Impact Test (HIT-6) disability score relative to baseline. The Headache Impact Test (HIT-6) is a well-known tool for assessing migraine intensity, and uses six questions to measure the adverse impact of headache on, for example, social functioning, role functioning, vitality, cognitive functioning, and psychological distress. Responses are based on frequency using a 5-point verbal response scale ranging from “never” to “always”. The HIT-6 total score is the sum of the responses, and ranges from 36 to 78. See Yang et al., Validation of the Headache Impact Test (HIT-6™) Across Episodic and Chronic Migraine, Cephalalgia 2011 February; 31 (3): 357-367. In embodiments, treatment with atogepant results in a greater than five (≥5) point decrease in HIT-6 disability score.
The Headache Impact Test (HIT-6, completed monthly) represented an additional exploratory measure. The HIT-6 test is a well-known tool for assessing migraine intensity that uses six questions to capture the impact of headache and its treatment on an individual's functional health and well-being. HIT-6 was completed monthly and was evaluated as the change from baseline in HIT-6 total score at weeks 4, 8, and 12.

[2] = tested on: participants with episodic migraine; experiment: Study B: MSQ v2.1 domain score over 52 weeks; conditions: Role Function-Restrictive (RFR) domain, atogepant 60 mg, mITT Population
From the text: The Migraine-Specific Quality of Life Questionnaire Version 2.1 is one of the most frequently utilized disease-specific tools assessing the impact of migraine on HRQL. The MSQ is a validated tool that assess the impact of migraine on function (i.e., daily social and work-related activities) over the past 4 weeks across three dimensions: Role Function-Restrictive (RR, or “RFR”, relating to how migraines limit the patient's daily social and work related activities), Role Function-Preventive (RP, e.g., how migraines prevent the patient's daily social and work related activities), and Emotional Function (EF, e.g., the emotions associated with a patient's migraines). Patients respond to items using a 6-point scale: “none of the time,” “a little bit of the time,” “some of the time”, “a good bit of the time,” “most of the time” and “all of the time,” which are assigned scores of 1 to 6, respectively. Raw dimension scores are computed as a sum of item responses and rescaled from a 0 to 100 scale such that higher scores indicate better quality of life. See Bagley et al., Validating Migraine-Specific Quality of Life Questionnaire v2.1 in Episodic and Chronic Migraine, Headache, 2012 March; 52 (3): 409-21.
The Migraine-Specific Quality of Life Questionnaire version 2.1 (MSQv2.1) Role Function-Restrictive (RFR) domain least squares (LS) mean (standard error [SE]) at baseline was 48.1 (20.26) and LS mean changes from baseline throughout the trial are shown in FIG. 17 and in Table 32. Findings indicated rapid improvement over the first 12 weeks and sustained improvement from 12 to 52 weeks, and non-zero confidence intervals throughout indicate significant improvement at each timepoint assessed.

ALT or AST = experiment: Study A: postbaseline hepatic laboratory parameters (ALT or AST, potential Hy's Law); conditions: safety population; for ALT or AST >=1 * ULN, n/N1 (%) / ALT or AST >=1.5 * ULN, n/N1 (%) / ALT or AST >=2 * ULN, n/N1 (%) / ALT or AST >=5 * ULN, n/N1 (%) / ALT or AST >=10 * ULN, n/N1 (%) / ALT or AST >=20 * ULN, n/N1: postbaseline
Method: Adverse events were reported by participants throughout the trial, and at a 4-week follow-up visit. Adverse event information was collected and documented during each clinic visit. Participants could also report adverse events via telephone call between visits. Causality of each adverse event was determined by the investigator who was blinded to the treatment. In addition, clinical laboratory tests, vital signs, electrocardiograms (ECG), and Columbia-Suicide Severity Rating Scale were evaluated. Based on the potential hepatotoxicity of prior gepants, treatment-emergent elevations in ALT or AST ≥3 times the upper limit of normal, as well as potential Hy's law cases, were evaluated as prespecified adverse events of special interest and were reviewed by an independent panel of liver experts blinded to treatment (see, e.g., Negro A et al., CGRP Receptor Antagonists: an expanding drug class for acute migraine? Expert Opin Investig Drugs 2012; 21:807-18; Messina R et al., CGRP—a target for acute therapy in migraine: Clinical Data. Cephalalgia 2019; 39:420-7).
There were no hepatic safety issues identified in this trial. ALT and/or AST increases were low across all atogepant doses and occurred at a lower rate than placebo. […] No cases of liver disease were reported, and no case met the criteria for potential Hy's Law following daily dosing for 12 weeks.

C[C@@H]1[C@H](c2c(F)ccc(F)c2F)C[C@H](NC(=O)c2cnc3c(c2)C[C@@]2(C3)C(=O)Nc3ncccc32)C(=O)N1CC(F)(F)F [atogepant]
HIT-6 change to week 12, LSMD vs placebo (95% CI) ([1]; 10 mg QD): −3.2 | HIT-6 responders (≥5 point reduction), n/N (%) ([1]; 10 mg QD, Week 4): (48.6) % | HIT-6 responders, odds ratio vs. placebo (95% CI) ([1]; 10 mg QD, Week 4): 1.53 | HIT-6 responders (≥5 point reduction), n/N (%) ([1]; 10 mg QD, Week 8): (60.4) % | HIT-6 responders, odds ratio vs. placebo (95% CI) ([1]; 10 mg QD, Week 8): 1.79 | HIT-6 responders (≥5 point reduction), n/N (%) ([1]; 10 mg QD, Week 12): (64.5) % | HIT-6 responders, odds ratio vs. placebo (95% CI) ([1]; 10 mg QD, Week 12): 1.74 | HIT-6 change from baseline to week 12, MMRM LS mean change (SE) ([1]; 10 mg QD): −8.4 | HIT-6 change from baseline to week 12, mean (SD) ([1]; 10 mg QD): −8.3 | HIT-6 score, Week 12, mean (SD) ([1]; 10 mg QD): 55.8 | HIT-6 change to week 12, LSMD vs placebo (95% CI) ([1]; 30 mg QD): −2.9 | HIT-6 responders (≥5 point reduction), n/N (%) ([1]; 30 mg QD, Week 4): (46.8) % | HIT-6 responders, odds ratio vs. placebo (95% CI) ([1]; 30 mg QD, Week 4): 1.43 | HIT-6 responders (≥5 point reduction), n/N (%) ([1]; 30 mg QD, Week 8): (62.2) % | HIT-6 responders, odds ratio vs. placebo (95% CI) ([1]; 30 mg QD, Week 8): 1.95 | HIT-6 responders (≥5 point reduction), n/N (%) ([1]; 30 mg QD, Week 12): (62.7) % | HIT-6 responders, odds ratio vs. placebo (95% CI) ([1]; 30 mg QD, Week 12): 1.54 | HIT-6 change from baseline to week 12, MMRM LS mean change (SE) ([1]; 30 mg QD): −8.1 | HIT-6 change from baseline to week 12, mean (SD) ([1]; 30 mg QD): −8.1 | HIT-6 score, Week 12, mean (SD) ([1]; 30 mg QD): 56.1 | HIT-6 change to week 12, LSMD vs placebo (95% CI) ([1]; 60 mg QD): −4.0 | HIT-6 responders (≥5 point reduction), n/N (%) ([1]; 60 mg QD, Week 4): (56.2) % | HIT-6 responders, odds ratio vs. placebo (95% CI) ([1]; 60 mg QD, Week 4): 2.18 | HIT-6 responders (≥5 point reduction), n/N (%) ([1]; 60 mg QD, Week 8): (64.7) % | HIT-6 responders, odds ratio vs. placebo (95% CI) ([1]; 60 mg QD, Week 8): 2.25 | HIT-6 responders (≥5 point reduction), n/N (%) ([1]; 60 mg QD, Week 12): (65.2) % | HIT-6 responders, odds ratio vs. placebo (95% CI) ([1]; 60 mg QD, Week 12): 1.77 | HIT-6 change from baseline to week 12, MMRM LS mean change (SE) ([1]; 60 mg QD): −9.2 | HIT-6 change from baseline to week 12, mean (SD) ([1]; 60 mg QD): −9.9 | HIT-6 score, Week 12, mean (SD) ([1]; 60 mg QD): 54.5 | Change from Baseline in MSQ v2.1 Domain Score, LS Mean Δ from baseline ([2]; Week 12): 30.02 | Change from Baseline in MSQ v2.1 Domain Score, LS Mean Δ from baseline ([2]; Week 24): 30.79 | Change from Baseline in MSQ v2.1 Domain Score, LS Mean Δ from baseline ([2]; Week 36): 32.34 | Change from Baseline in MSQ v2.1 Domain Score, LS Mean Δ from baseline ([2]; Week 48): 34.32 | Change from Baseline in MSQ v2.1 Domain Score, LS Mean Δ from baseline ([2]; Week 52): 34.70 | ALT or AST >=1 * ULN, n/N1 (%) (ALT or AST; 10 mg QD): (8.6) % | ALT or AST >=1.5 * ULN, n/N1 (%) (ALT or AST; 10 mg QD): (1.4) % | ALT or AST >=2 * ULN, n/N1 (%) (ALT or AST; 10 mg QD): (0.9) % | ALT or AST >=5 * ULN, n/N1 (%) (ALT or AST; 10 mg QD): (0.5) % | ALT or AST >=10 * ULN, n/N1 (%) (ALT or AST; 10 mg QD): (0.5) % | ALT or AST >=20 * ULN, n/N1 (ALT or AST; 10 mg QD): 0 | Potential Hy's Law (ALT or AST >= 3 * ULN AND Bilirubin Total >= 2 * ULN AND ALP < 2 * ULN), n/N1 (ALT or AST; 10 mg QD): 0 | ALT or AST >=1 * ULN, n/N1 (%) (ALT or AST; 30 mg QD): (8.0) % | ALT or AST >=1.5 * ULN, n/N1 (%) (ALT or AST; 30 mg QD): (3.1) % | ALT or AST >=2 * ULN, n/N1 (%) (ALT or AST; 30 mg QD): (0.9) % | ALT or AST >=5 * ULN, n/N1 (%) (ALT or AST; 30 mg QD): (0.4) % | ALT or AST >=10 * ULN, n/N1 (%) (ALT or AST; 30 mg QD): 0% | ALT or AST >=20 * ULN, n/N1 (ALT or AST; 30 mg QD): 0 | Potential Hy's Law (ALT or AST >= 3 * ULN AND Bilirubin Total >= 2 * ULN AND ALP < 2 * ULN), n/N1 (ALT or AST; 30 mg QD): 0 | ALT or AST >=1 * ULN, n/N1 (%) (ALT or AST; 60 mg QD): (12.3) % | ALT or AST >=1.5 * ULN, n/N1 (%) (ALT or AST; 60 mg QD): (3.1) % | ALT or AST >=2 * ULN, n/N1 (%) (ALT or AST; 60 mg QD): (1.8) % | ALT or AST >=5 * ULN, n/N1 (%) (ALT or AST; 60 mg QD): (0.4) % | ALT or AST >=10 * ULN, n/N1 (%) (ALT or AST; 60 mg QD): 0% | ALT or AST >=20 * ULN, n/N1 (ALT or AST; 60 mg QD): 0 | Potential Hy's Law (ALT or AST >= 3 * ULN AND Bilirubin Total >= 2 * ULN AND ALP < 2 * ULN), n/N1 (ALT or AST; 60 mg QD): 0
